Consider 13 compounds from patent US20260116921A1, “PEPTIDE INHIBITORS OF INTERLEUKIN-23 RECEPTOR AND THEIR USE TO TREAT INFLAMMATORY DISEASES” (priority 2018, published 2026).

Numbered stars: 1 amine (or outer) side, 2 acyl side, 3 side chain; on linkers, the order of the positions; unused ones are H or OH. Bridge positions count the residues as written; N and C are the ends. Square brackets hold non-standard residues; d marks the D form. Peptide text beside a SMILES is read from it. Trp(7-Me) = Cc1cccc2c(C[C@H](N)C(=O)O)c[nH]c12; Trp(1-Me) = Cn1cc(C[C@H](N)C(=O)O)c2ccccc21; Abu(4-yl) = O=C([C@H](CC[*:3])N[*:1])[*:2]; 2Nal = N[C@@H](Cc1ccc2ccccc2c1)C(=O)O; AEF = NCCOc1ccc(C[C@H](N)C(=O)O)cc1; Pen = CC(C)(S)[C@H](N)C(=O)O; αMeK = C[C@](N)(CCCCN)C(=O)O; βAla = NCCC(=O)O

The target of one series is T1, IL-23R (Homo sapiens, UniProt Q5VWK5).
T1 sequence (Q5VWK5 24-629): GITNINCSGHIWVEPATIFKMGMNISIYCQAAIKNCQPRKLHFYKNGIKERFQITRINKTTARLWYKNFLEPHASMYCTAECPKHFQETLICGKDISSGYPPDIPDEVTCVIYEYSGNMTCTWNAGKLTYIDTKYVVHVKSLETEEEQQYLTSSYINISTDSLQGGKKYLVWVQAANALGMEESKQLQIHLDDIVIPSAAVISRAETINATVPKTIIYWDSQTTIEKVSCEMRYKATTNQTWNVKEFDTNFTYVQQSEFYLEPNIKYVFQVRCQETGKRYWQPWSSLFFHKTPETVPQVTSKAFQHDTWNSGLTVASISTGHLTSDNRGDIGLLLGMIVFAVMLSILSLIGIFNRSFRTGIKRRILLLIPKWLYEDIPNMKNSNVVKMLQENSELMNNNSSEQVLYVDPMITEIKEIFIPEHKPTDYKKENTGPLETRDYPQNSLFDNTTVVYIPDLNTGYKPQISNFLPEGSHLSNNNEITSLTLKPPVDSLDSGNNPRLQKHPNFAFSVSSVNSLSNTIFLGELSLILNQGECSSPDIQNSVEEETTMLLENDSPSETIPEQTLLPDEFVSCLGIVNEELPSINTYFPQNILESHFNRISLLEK
Description: DB cells IL23R pSTAT3 cell assay (pStat3 HTRF). As to conditions: Table E3; DB cells, IL-23 0.5 nM, 30 minutes at 37° C.; read-out: pStat3 HTRF (IC50). In kind it is cell-based. Put shortly:
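DB cells (5×10E5/well, RPMI-1640 + 10% FBS) stimulated with 0.5 nM final IL-23 plus serially diluted test peptides for 30 min at 37 °C, 5% CO2. Phospho-STAT3 (Tyr705) in lysates measured by HTRF using a two-plate protocol.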
Background: In TR-FRET formats the signal depends on donor and acceptor labels being close together.

The nature of series [1]: in vitro. In kind it is in vitro ADME. Also noted: half-life: dose or concentration left out as unconfirmed. As to conditions: simulated intestinal fluid (SIF) with pancreatin, pH 6.8, 37° C., § matrix is 100 fold dilution of standard SIF concentration, read-out: SIF t½ (converted).
Description: SIF was prepared by adding 6.8 g of monobasic potassium phosphate and 10.0 g of pancreatin to 1.0 L of water. After dissolution, the pH was adjusted to 6.8 using NaOH. DMSO stocks (2 mM) were first prepared for the test compounds. Aliquots of the DMSO solutions were dosed into 6 individual tubes, each containing 0.5 mL of SIF, which is pre-warmed to 37° C. The final test compound concentration was 20 M. The vials were kept in a benchtop Thermomixer® for the duration of the experiment. At each timepoint (0, 5, 10, 20, 40, 60, or 360 minutes or 24 hours), 1.0 mL of acetonitrile containing 1% formic acid was added to one vial to terminate the reaction. Samples were stored at 4° C. until the end of the experiment. After the final timepoint is sampled, the tubes were mixed and then centrifuged at 3,000 rpm for 10 minutes. Aliquots of the supernatant were removed, diluted 1:1 into distilled water containing internal standard, and analyzed by LCMS/MS. Percent remaining at each timepoint was calculated based on the peak area response ratio of test to compound to internal standard. Time 0 was set to 100%, and all later timepoints were calculated relative to time 0. Half-lives were calculated by fitting to a first-order exponential decay equation using Graphpad.
Series [2] is described as follows: in vitro. As to conditions: both, SD, rat, plasma (EDTA).
Series [3] in a line: in vitro. Conditions: human, 20% fecal homogenate (supernatant), anaerobic, pH 6.8.
Description: Fecal homogenate (20%) was prepared by adding 4 mL of growth medium (1 liter contains 2 g peptone water powder, 2 g yeast extract, 0.1 g NaCl, 0.04 g KH2PO4, 0.01 g CaCl2·6H2O, 0.01 g MgSO4·7H2O, 2 mL Tween 80, 0.5 g bile salts, 0.5 g L-cysteine HCl, 2 g NaHCO3, and 10 μL Vitamin K, pH adjusted to 6.8, and sterilized by filtration through a 0.22 μm filter) to every gram of feces (pooled freshly collected human or cynomolgus monkey feces). The suspension was vortexed to break up large clumps, and homogenized using a bead mill homogenizer. Centrifuged the homogenate at 2800×g for 15 min. The supernatant is taken out and used for incubations. DMSO stocks (10 mM) were first prepared for the test compounds. Incubations were performed in an anaerobic chamber conditioned at 37° C. Aliquots of the DMSO solutions were dosed into 1.0 mL aliquots of 20% fecal homogenate, which are pre-warmed to 37° C. The final test compound concentration was 20 μM. At each timepoint (0, 20 min, 1, 3, 6, or 24 hours), 100 μL aliquot of each incubation mixture is taken out and added to separate tubes containing 300 μL of 50% acetonitrile/50% methanol and an internal standard to terminate the reaction. Samples were taken out of the anaerobic chamber and stored at 4° C. until the end of the experiment. After the final timepoint is sampled, the tubes were mixed and then centrifuged at 3,000 rpm for 10 minutes. Aliquots of the supernatant were removed, diluted 1:1 into distilled water containing 0.1% formic acid, and analyzed by LC/MS/MS. Percent remaining at each timepoint was calculated based on the peak area response ratio of test to compound to internal standard. Time 0 was set to 100%, and all later timepoints were calculated relative to time 0. Half-lives were calculated by fitting to a first-order exponential decay equation using Graphpad or Excel.
Series [4] in a line: in vitro. As to conditions: cynomolgus monkey, 20% fecal homogenate (supernatant), anaerobic, pH 6.8.

Broadly, the IC50 is the concentration at which inhibition is half-maximal. For `CC(=O)NCCCC[C@@H]1NC(=O)[C@H](Cc2c[nH]c3c(C)cccc23)NC(=O)[C@H]([C@@H](C)O)NC(=O)[C@H](CC(N)=O)NC(=O)[C@@H](NC(C)=O)C(C)(C)SSC(C)(C)[C@@H](C(=O)N[C@@H](Cc2ccc(OCCN)cc2)C(=O)N[C@@H](Cc2ccc3ccccc3c2)C(=O)N[C@@](C)(CCCCN)C(=O)N[C@@H](CCCCNC(C)=O)C(=O)N[C@@H](CC(N)=O)C(=O)N[C@@H](CCCNC(=N)N)C(N)=O)NC1=O` [compound 243], the IC50 on IL-23R was in the range of 1 to 10 nM. For the same compound, the half-life in “in vitro [1]” was less than 1 h. The half-life at 20 μM is 21 h in the series “in vitro [2]” and 1 h in the series “in vitro [3]”.
Take `CC(=O)NCCCC[C@@H]1NC(=O)[C@H](Cc2c[nH]c3c(C)cccc23)NC(=O)[C@H]([C@@H](C)O)NC(=O)[C@H](CC(N)=O)NC(=O)[C@@H](NC(C)=O)C(C)(C)SSC(C)(C)[C@@H](C(=O)N[C@@H](Cc2ccc(OCCN)cc2)C(=O)N[C@@H](Cc2ccc3ccccc3c2)C(=O)N[C@@](C)(CCCCN)C(=O)N[C@@H](CCCCNC(C)=O)C(=O)N[C@@H](CC(N)=O)C(=O)N[C@@H](C(N)=O)C(C)C)NC1=O` [compound 251]: on IL-23R, the IC50 is less than 1 nM. In addition, in “in vitro [1]”, the half-life was 22 h. In addition, the half-life at 20 μM in “in vitro [2]”, in the series “in vitro [3]” and in the series “in vitro [4]” was more than 24 h throughout.
As for `CC(=O)NCCCC[C@H](NC(=O)[C@](C)(CCCCN)NC(=O)[C@H](Cc1ccc2ccccc2c1)NC(=O)[C@H](Cc1ccc(OCCN)cc1)NC(=O)[C@H]1NC(=O)[C@H](CCCCNC(=O)CC(C)C)NC(=O)[C@H](Cc2c[nH]c3c(C)cccc23)NC(=O)[C@H]([C@@H](C)O)NC(=O)[C@H](CC(N)=O)NC(=O)[C@@H](NC(C)=O)C(C)(C)SSC1(C)C)C(=O)N[C@@H](CC(N)=O)C(=O)N[C@H](CC(C)C)C(N)=O` [compound 315], the IC50 at IL-23R lay in the range of 1 to 10 nM. For the same compound, in the series “in vitro [1]”, the half-life is 9 h.
For the compound `CC(=O)NCCCC[C@@H]1NC(=O)[C@H](Cc2c[nH]c3c(C)cccc23)NC(=O)[C@H]([C@@H](C)O)NC(=O)[C@H](CC(N)=O)NC(=O)[C@@H](NC(C)=O)C(C)(C)SSC(C)(C)[C@@H](C(=O)N[C@@H](Cc2ccc(OCCN)cc2)C(=O)N[C@@H](Cc2ccc3ccccc3c2)C(=O)N[C@@](C)(CCCCN)C(=O)N[C@@H](CCCCNC(C)=O)C(=O)N[C@@H](CC(N)=O)C(=O)N[C@@H](CC(C)C)C(N)=O)NC1=O` [compound 244], the half-inhibitory concentration (IC50) on IL-23R fell in the range of 1 to 10 nM. In the series “in vitro [1]”, the half-life is 1 h. In addition, the half-life at 20 μM in “in vitro [2]” is more than 24 h; in “in vitro [3]”, 19 h.
On to `CC(=O)NCCCC[C@H](NC(=O)[C@](C)(CCCCN)NC(=O)[C@H](Cc1ccc2ccccc2c1)NC(=O)[C@H](Cc1ccc(OCCN)cc1)NC(=O)[C@H]1NC(=O)[C@H](CCCCNC(=O)C2CCCCC2)NC(=O)[C@H](Cc2c[nH]c3c(C)cccc23)NC(=O)[C@H]([C@@H](C)O)NC(=O)[C@H](CC(N)=O)NC(=O)[C@@H](NC(C)=O)C(C)(C)SSC1(C)C)C(=O)N[C@@H](CC(N)=O)C(=O)N[C@H](CC(C)C)C(N)=O` [compound 316], for which the half-inhibitory concentration (IC50) on IL-23R lay within 1 to 10 nM. Further, the half-life in the series “in vitro [1]” is 7 h.
With `CC(=O)NCCCC[C@@H]1NC(=O)[C@H](Cc2c[nH]c3c(C)cccc23)NC(=O)[C@H]([C@@H](C)O)NC(=O)[C@H](CCC(N)=O)NC(=O)[C@@H](NC(=O)[C@@H](CCCNC(=N)N)NC(C)=O)CCSC[C@@H](C(=O)N[C@@H](Cc2ccc(OCCN)cc2)C(=O)N[C@@H](Cc2ccc3ccccc3c2)C(=O)N[C@@](C)(CCCCN)C(=O)N[C@@H](CCCCNC(C)=O)C(=O)N[C@@H](CC(N)=O)C(=O)N[C@H](CCCCN)C(N)=O)NC1=O` [compound 324] (Ac-[dR][Abu(4-yl)]QT[Trp(7-Me)]K(Ac)C[AEF][2Nal][αMeK]K(Ac)N[dK]-NH2; thioether 2-7), the IC50 on IL-23R lay within 10 to 100 nM. Further, in “in vitro [1]”, the half-life is 1 h.
`CC(=O)NCCCC[C@@H]1NC(=O)[C@H](Cc2c[nH]c3c(C)cccc23)NC(=O)[C@H]([C@@H](C)O)NC(=O)[C@H](CC(N)=O)NC(=O)[C@@H](NC(C)=O)C(C)(C)SSC(C)(C)[C@@H](C(=O)N[C@@H](Cc2ccc(OCCN)cc2)C(=O)N[C@@H](Cc2ccc3ccccc3c2)C(=O)N[C@@](C)(CCCCN)C(=O)N[C@@H](CCCCNC(C)=O)C(=O)N[C@@H](CC(N)=O)C(=O)N[C@@H](Cc2c[nH]cn2)C(N)=O)NC1=O` [compound 248]: in the series “in vitro [1]”, the half-life is 3 h. Also, the results for the half-life at 20 μM in “in vitro [2]”, in “in vitro [3]” and in “in vitro [4]” were more than 24 h, more than 24 h and 6 h, respectively.
For the compound `CC(=O)NCCCC[C@H](NC(=O)[C@](C)(CCCCN)NC(=O)[C@H](Cc1ccc2ccccc2c1)NC(=O)[C@H](Cc1ccc(OCCN)cc1)NC(=O)[C@H]1NC(=O)[C@H](CCCCNC(=O)CN)NC(=O)[C@H](Cc2c[nH]c3c(C)cccc23)NC(=O)[C@H]([C@@H](C)O)NC(=O)[C@H](CC(N)=O)NC(=O)[C@@H](NC(C)=O)C(C)(C)SSC1(C)C)C(=O)N[C@@H](CC(N)=O)C(=O)N[C@H](CC(C)C)C(N)=O` [compound 320], the IC50 on IL-23R is less than 1 nM. Also, in the series “in vitro [1]”, the half-life was 12 h.
The matching figures for `CC(=O)NCCCC[C@H](NC(=O)[C@](C)(CCCCN)NC(=O)[C@H](Cc1ccc2ccccc2c1)NC(=O)[C@H](Cc1ccc(OCCN)cc1)NC(=O)[C@H]1NC(=O)[C@H](CCCCNC(=O)CCN)NC(=O)[C@H](Cc2c[nH]c3c(C)cccc23)NC(=O)[C@H]([C@@H](C)O)NC(=O)[C@H](CC(N)=O)NC(=O)[C@@H](NC(C)=O)C(C)(C)SSC1(C)C)C(=O)N[C@@H](CC(N)=O)C(=O)N[C@H](CC(C)C)C(N)=O` [compound 321]: 1 to 10 nM and 3 h.
Turning to `CC(=O)N[C@@H]1C(=O)N[C@@H](CC(N)=O)C(=O)N[C@@H]([C@@H](C)O)C(=O)N[C@@H](Cc2c[nH]c3c(C)cccc23)C(=O)N[C@@H](CCC(N)=O)C(=O)N[C@H](C(=O)N[C@@H](Cc2ccc(OCCN)cc2)C(=O)N[C@@H](Cc2ccc3ccccc3c2)C(=O)N[C@@](C)(CC(C)C)C(=O)NCC(=O)N2CCC[C@@H]2C(=O)NCCC(N)=O)C(C)(C)SSC1(C)C` [compound 220], the IC50 on IL-23R was more than 100 nM. For the same compound, the half-life at 20 μM in “in vitro [2]” was 1 h; in the series “in vitro [3]” it was more than 24 h; in the series “in vitro [4]”, 21 h.
With `CC(=O)NCCCC[C@H](NC(=O)[C@](C)(CCCCN)NC(=O)[C@H](Cc1cn(C)c2ccccc12)NC(=O)[C@H](Cc1ccc(OCCN)cc1)NC(=O)[C@H]1NC(=O)[C@H](CCC(N)=O)NC(=O)[C@H](Cc2c[nH]c3c(C)cccc23)NC(=O)[C@H]([C@@H](C)O)NC(=O)[C@H](CC(N)=O)NC(=O)[C@@H](NC(C)=O)C(C)(C)SSC1(C)C)C(=O)N[C@@H](CC(N)=O)C(=O)NCCC(N)=O` [compound 283] (Ac-[Pen]NT[Trp(7-Me)]Q[Pen][AEF][Trp(1-Me)][αMeK]K(Ac)N[βAla]-NH2; disulfide 1-6), the IC50 at IL-23R lay in the range of 1 to 10 nM. Moreover, the half-life at 20 μM in the series “in vitro [2]” was more than 24 h; in the series “in vitro [3]” it was more than 24 h; in the series “in vitro [4]”, 17 h.
Regarding `CC(=O)NCCCC[C@@H]1NC(=O)[C@H](Cc2c[nH]c3c(C)cccc23)NC(=O)[C@H]([C@@H](C)O)NC(=O)[C@H](CC(N)=O)NC(=O)[C@@H](NC(C)=O)C(C)(C)SSC(C)(C)[C@@H](C(=O)N[C@@H](Cc2ccc(OCCN)cc2)C(=O)N[C@@H](Cc2ccc3ccccc3c2)C(=O)N[C@@](C)(CCCCN)C(=O)N[C@@H](CCCCNC(C)=O)C(=O)N[C@@H](CC(N)=O)C(=O)N[C@H](CC(C)C)C(N)=O)NC1=O` [compound 245], on IL-23R, the 50% inhibitory concentration (IC50) was less than 1 nM. In addition, the half-life at 20 μM in “in vitro [2]”, in “in vitro [3]” and in “in vitro [4]” was more than 24 h throughout.
For the compound `CC(=O)N[C@H]1CCSC[C@@H](C(=O)N[C@@H](Cc2ccc(OCCN)cc2)C(=O)N[C@@H](Cc2ccc3ccccc3c2)C(=O)NC2(C(=O)N[C@@H](CCC(=O)O)C(=O)N[C@@H](CC(N)=O)C(=O)NCCC(N)=O)CCOCC2)NC(=O)[C@H](CCC(N)=O)NC(=O)[C@H](Cc2c[nH]c3c(C)cccc23)NC(=O)[C@H]([C@@H](C)O)NC(=O)[C@H](CCC(N)=O)NC1=O` [compound 204], the IC50 at IL-23R was 1 to 10 nM. Moreover, the half-life in “in vitro [1]” is 19 h. Besides, the half-life at 20 μM in “in vitro [3]” was 1 h; in “in vitro [4]”, 5 h.
